Experimental data as given in article PMC11725581, “Developing novel Lin28 inhibitors by computer aided drug design” (Cell Death Discovery, 2025).

Biological target: T1, Lin28b ZKD (Homo sapiens, UniProt Q6ZN17)
T1 sequence (Q6ZN17 127-166 limits assumed): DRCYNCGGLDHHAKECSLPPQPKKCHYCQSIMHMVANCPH
Test: EMSA, Lin28b ZKD:pre-let-7d complex formation
Type: binding
Conditions: 1 μM Lin28 ZKD, 10 nM IRDye800-labeled pre-let-7d probe
Procedure: We next validated the newly developed compounds using EMSA, a non-florescent-based assay to detect Lin28b ZKD:pre-let-7 complex formation. Similar to the FP assays, we first optimized the experimental conditions by titrating: (1) IRDye800-labeled pre-let-7d RNA probe, (2) Lin28b ZKD protein, and (3) non-labeled pre-let-7 probe as a competitor (Fig. 2C). For the validation experiments, 1 μM Lin28 ZKD and 10 nM of IRDye800-labeled pre-let-7d probe were mixed with each candidate compound. Compounds C1632 and Ln15 were used as control Lin28 inhibitors, respectively. […] Regardless, we use these two biochemical assays to shortlist the most promising compounds for further characterization. […] While our inhibitors directly target the Lin28 ZKD, it is unclear whether C1632 may bind to domains other than the ZKD or allosterically disrupt Lin28’s capacity to bind its RNA substrates.
EMSA followed the standard protocols we published. An IRDye800CWN-labeled pre-Let-7d RNA probe (5’-IRD800CWN-[…]-3’) was purchased from IDT (Coralville, IA, USA). Lin28a or Lin28b proteins were incubated with 300 nM of probe in a standard 20 uL EMSA reaction in a reaction buffer containing 20 mM HEPES-NaOH, pH 7.4, 2 mM DTT, 3 mM MgCl2, 0.05% NP-40, protease inhibitors, and 0.1 ug poly[dI:dC]. After incubation for 30 min at 37 °C, reactions were loaded onto 4% non-denatured polyacrylamide gel in 0.5× TBE buffer. The RNA oligo bands were visualized by using the Li-Cor Odyssey 9120 Infrared Imaging System.

O=c1[nH]c(Nc2ccc(F)cc2O)cs1 [Ln268]
inhibition of Lin28b ZKD:pre-let-7d complex formation (EMSA): capable of inhibiting Lin28:pre-let-7d complex formation in a dose-dependent manner
